Test results from ChEMBL document CHEMBL1649198, “Efflux unbalance in Pseudomonas aeruginosa isolates from cystic fibrosis patients” (2009).
Values after ≈ are worked out from the molar mass of the structure shown.

What was measured:
Pseudomonas aeruginosa [1] = test: Antimicrobial activity against Pseudomonas aeruginosa PAO1 by twofold macrodilution method; format: functional
Pseudomonas aeruginosa [2] = test: Antimicrobial activity against ampicillin- and ticarcillin-resistant Pseudomonas aeruginosa FE60 mutant transformed with pAGH97 carrying mexXY F29S mutant by twofold macrodilution method; format: functional
Pseudomonas aeruginosa [3] = test: Antimicrobial activity against Pseudomonas aeruginosa isolate 3020R obtained from cystic fibrosis patient by agar dilution method
Pseudomonas aeruginosa [4] = test: Antimicrobial activity against mexXY deficient ampicillin- and ticarcillin-resistant Pseudomonas aeruginosa FE60 mutant by twofold macrodilution method; format: functional
Pseudomonas aeruginosa [5] = test: Antimicrobial activity against Pseudomonas aeruginosa isolate 2721 obtained from cystic fibrosis patient by agar dilution method
Pseudomonas aeruginosa [6] = test: Antimicrobial activity against Pseudomonas aeruginosa isolate 2858 obtained from cystic fibrosis patient by disk diffusion method; format: functional
Pseudomonas aeruginosa [7] = test: Antimicrobial activity against Pseudomonas aeruginosa isolate 615S obtained from cystic fibrosis patient by disk diffusion method; format: functional
Pseudomonas aeruginosa [8] = test: Antimicrobial activity against Pseudomonas aeruginosa isolate 2715 obtained from cystic fibrosis patient by agar dilution method
Pseudomonas aeruginosa [9] = test: Antimicrobial activity against Pseudomonas aeruginosa isolate 2804 obtained from cystic fibrosis patient by disk diffusion method; format: functional
Pseudomonas aeruginosa [10] = test: Antimicrobial activity against Pseudomonas aeruginosa isolate 615R obtained from cystic fibrosis patient by disk diffusion method; format: functional
Pseudomonas aeruginosa [11] = test: Antimicrobial activity against ampicillin- and ticarcillin-resistant Pseudomonas aeruginosa FE60 mutant transformed with pAGH97 carrying mexXY operon by twofold macrodilution method; format: functional
Pseudomonas aeruginosa [12] = test: Antimicrobial activity against Pseudomonas aeruginosa isolate 2998 obtained from cystic fibrosis patient by agar dilution method
Pseudomonas aeruginosa [13] = test: Antimicrobial activity against ampicillin- and ticarcillin-resistant Pseudomonas aeruginosa FE60 mutant transformed with pAGH97 carrying mexXY F1018L mutant by twofold macrodilution method; format: functional
Pseudomonas aeruginosa [14] = test: Antimicrobial activity against Pseudomonas aeruginosa isolate 2933 obtained from cystic fibrosis patient by disk diffusion method; format: functional
Pseudomonas aeruginosa [15] = test: Antimicrobial activity against Pseudomonas aeruginosa isolate 3066 obtained from cystic fibrosis patient by disk diffusion method; format: functional
Pseudomonas aeruginosa [16] = test: Antimicrobial activity against Pseudomonas aeruginosa mutGR1 overexpressing mexXY mutant by twofold macrodilution method; format: functional
Pseudomonas aeruginosa [17] = test: Antimicrobial activity against Pseudomonas aeruginosa isolate 3020S obtained from cystic fibrosis patient by disk diffusion method; format: functional
Pseudomonas aeruginosa [18] = test: Antimicrobial activity against Pseudomonas aeruginosa isolate 2729 obtained from cystic fibrosis patient by disk diffusion method; format: functional
Pseudomonas aeruginosa [19] = test: Antimicrobial activity against Pseudomonas aeruginosa isolate 2716 obtained from cystic fibrosis patient by agar dilution method
Pseudomonas aeruginosa [20] = test: Ratio of MIC for mexB deficient Pseudomonas aeruginosa FB1 mutant to Pseudomonas aeruginosa PAO1; format: functional
Pseudomonas aeruginosa [21] = test: Antimicrobial activity against Pseudomonas aeruginosa isolate 2933 obtained from cystic fibrosis patient
Pseudomonas aeruginosa [22] = test: Antimicrobial activity against mexB gene inactivated Pseudomonas aeruginosa isolate 2721 obtained from cystic fibrosis patient by agar dilution method
Pseudomonas aeruginosa [23] = test: Antimicrobial activity against Pseudomonas aeruginosa isolate 2998 obtained from cystic fibrosis patient
Pseudomonas aeruginosa [24] = test: Antimicrobial activity against mexB gene inactivated Pseudomonas aeruginosa isolate 2715 obtained from cystic fibrosis patient by agar dilution method
Pseudomonas aeruginosa [25] = test: Antimicrobial activity against Pseudomonas aeruginosa isolate 2729 obtained from cystic fibrosis patient
Pseudomonas aeruginosa [26] = test: Antimicrobial activity against mexB gene inactivated Pseudomonas aeruginosa isolate 3020S obtained from cystic fibrosis patient by agar dilution method
Pseudomonas aeruginosa [27] = test: Antimicrobial activity against Pseudomonas aeruginosa isolate 615R with inactivated mexB gene obtained from cystic fibrosis patient by disk diffusion method
Pseudomonas aeruginosa [28] = test: Antimicrobial activity against mexB gene inactivated Pseudomonas aeruginosa isolate 2716 obtained from cystic fibrosis patient by agar dilution method
Pseudomonas aeruginosa [29] = test: Antimicrobial activity against mexB gene inactivated Pseudomonas aeruginosa isolate 3020R obtained from cystic fibrosis patient by agar dilution method
Pseudomonas aeruginosa [30] = test: Antimicrobial activity against mexXY operon inactivated Pseudomonas aeruginosa PAO1 by twofold macrodilution method; format: functional
Pseudomonas aeruginosa [31] = test: Antimicrobial activity against Pseudomonas aeruginosa isolate 3066 obtained from cystic fibrosis patient

NCC[C@H](O)C(=O)N[C@@H]1C[C@H](N)[C@@H](O[C@H]2O[C@H](CN)[C@@H](O)[C@H](O)[C@H]2O)[C@H](O)[C@H]1O[C@H]1O[C@H](CO)[C@@H](O)[C@H](N)[C@H]1O [AMIKACIN]
MIC (Pseudomonas aeruginosa [1]): 2 µg/mL (≈ 3.42 µM) | MIC (Pseudomonas aeruginosa [2]): 4 µg/mL (≈ 6.83 µM) | MIC (Pseudomonas aeruginosa [3]): 32 µg/mL (≈ 54.6 µM) | MIC (Pseudomonas aeruginosa [4]): 0.5 µg/mL (≈ 0.854 µM) | MIC (Pseudomonas aeruginosa [5]): 32 µg/mL (≈ 54.6 µM) | MIC (Pseudomonas aeruginosa [6]): 8 µg/mL (≈ 13.7 µM) | MIC (Pseudomonas aeruginosa [7]): 2 µg/mL (≈ 3.42 µM) | MIC (Pseudomonas aeruginosa [8]): 8 µg/mL (≈ 13.7 µM) | MIC (Pseudomonas aeruginosa [9]): 128 µg/mL (≈ 219 µM) | MIC (Pseudomonas aeruginosa [10]): 16 µg/mL (≈ 27.3 µM) | MIC (Pseudomonas aeruginosa [11]): 4 µg/mL (≈ 6.83 µM) | MIC (Pseudomonas aeruginosa [12]): 16 µg/mL (≈ 27.3 µM) | MIC (Pseudomonas aeruginosa [13]): 8 µg/mL (≈ 13.7 µM) | MIC (Pseudomonas aeruginosa [14]): 32 µg/mL (≈ 54.6 µM) | MIC (Pseudomonas aeruginosa [15]): 128 µg/mL (≈ 219 µM) | MIC (Pseudomonas aeruginosa [16]): 8 µg/mL (≈ 13.7 µM) | MIC (Pseudomonas aeruginosa [17]): 2 µg/mL (≈ 3.42 µM) | MIC (Pseudomonas aeruginosa [18]): 16 µg/mL (≈ 27.3 µM) | MIC (Pseudomonas aeruginosa [19]): 8 µg/mL (≈ 13.7 µM)

CO/N=C(\C(=O)N[C@@H]1C(=O)N2C(C(=O)[O-])=C(C[N+]3(C)CCCC3)CS[C@H]12)c1csc(N)n1
MIC (Pseudomonas aeruginosa [2]): 8 µg/mL (≈ 16.6 µM) | MIC (Pseudomonas aeruginosa [3]): 4 µg/mL (≈ 8.32 µM) | MIC (Pseudomonas aeruginosa [5]): 8 µg/mL (≈ 16.6 µM) | MIC (Pseudomonas aeruginosa [6]): 4 µg/mL (≈ 8.32 µM) | MIC (Pseudomonas aeruginosa [8]): 16 µg/mL (≈ 33.3 µM) | MIC (Pseudomonas aeruginosa [9]): 32 µg/mL (≈ 66.6 µM) | MIC (Pseudomonas aeruginosa [10]): 4 µg/mL (≈ 8.32 µM) | MIC (Pseudomonas aeruginosa [11]): 8 µg/mL (≈ 16.6 µM) | MIC (Pseudomonas aeruginosa [12]): 8 µg/mL (≈ 16.6 µM) | MIC (Pseudomonas aeruginosa [13]): 16 µg/mL (≈ 33.3 µM) | MIC (Pseudomonas aeruginosa [14]): 16 µg/mL (≈ 33.3 µM) | MIC (Pseudomonas aeruginosa [15]): 32 µg/mL (≈ 66.6 µM) | MIC (Pseudomonas aeruginosa [16]): 8 µg/mL (≈ 16.6 µM) | MIC (Pseudomonas aeruginosa [18]): 8 µg/mL (≈ 16.6 µM) | MIC (Pseudomonas aeruginosa [19]): 8 µg/mL (≈ 16.6 µM)

CC1(C)S[C@@H]2[C@H](NC(=O)[C@H](C(=O)O)c3ccsc3)C(=O)N2[C@H]1C(=O)O [TICARCILLIN]
MIC (Pseudomonas aeruginosa [1]): 32 µg/mL (≈ 83.2 µM) | MIC (Pseudomonas aeruginosa [3]): 2 µg/mL (≈ 5.2 µM) | MIC (Pseudomonas aeruginosa [5]): 2 µg/mL (≈ 5.2 µM) | MIC (Pseudomonas aeruginosa [6]): 2 µg/mL (≈ 5.2 µM) | MIC (Pseudomonas aeruginosa [7]): 1 µg/mL (≈ 2.6 µM) | MIC (Pseudomonas aeruginosa [8]): 2 µg/mL (≈ 5.2 µM) | MIC (Pseudomonas aeruginosa [9]): 0.5 µg/mL (≈ 1.3 µM) | MIC (Pseudomonas aeruginosa [10]): 2 µg/mL (≈ 5.2 µM) | MIC (Pseudomonas aeruginosa [12]): 0.5 µg/mL (≈ 1.3 µM) | fold change (FC) (Pseudomonas aeruginosa [20]): 64 | MIC (Pseudomonas aeruginosa [14]): 0.5 µg/mL (≈ 1.3 µM) | MIC (Pseudomonas aeruginosa [15]): 2 µg/mL (≈ 5.2 µM) | MIC (Pseudomonas aeruginosa [16]): 32 µg/mL (≈ 83.2 µM) | MIC (Pseudomonas aeruginosa [17]): 16 µg/mL (≈ 41.6 µM) | MIC (Pseudomonas aeruginosa [18]): 0.5 µg/mL (≈ 1.3 µM) | MIC (Pseudomonas aeruginosa [19]): 2 µg/mL (≈ 5.2 µM)

O=C(O)c1cn(C2CC2)c2cc(N3CCNCC3)c(F)cc2c1=O [CIPROFLOXACIN]
MIC (Pseudomonas aeruginosa [5]): 1 µg/mL (≈ 3.02 µM) | MIC (Pseudomonas aeruginosa [7]): 4 µg/mL (≈ 12.1 µM) | MIC (Pseudomonas aeruginosa [8]): 1 µg/mL (≈ 3.02 µM) | MIC (Pseudomonas aeruginosa [9]): 16 µg/mL (≈ 48.3 µM) | MIC (Pseudomonas aeruginosa [10]): 1 µg/mL (≈ 3.02 µM) | MIC (Pseudomonas aeruginosa [12]): 1 µg/mL (≈ 3.02 µM) | MIC (Pseudomonas aeruginosa [13]): 1 µg/mL (≈ 3.02 µM) | MIC (Pseudomonas aeruginosa [15]): 16 µg/mL (≈ 48.3 µM) | MIC (Pseudomonas aeruginosa [18]): 1 µg/mL (≈ 3.02 µM)

CO[C@@H]1[C@@H](OC(N)=O)[C@@H](O)[C@H](Oc2ccc3c(O)c(NC(=O)c4ccc(O)c(CC=C(C)C)c4)c(=O)oc3c2C)OC1(C)C [NOVOBIOCIN]
MIC (Pseudomonas aeruginosa [1]): 512 µg/mL (≈ 836 µM) | MIC (Pseudomonas aeruginosa [21]): 4 µg/mL (≈ 6.53 µM) | MIC (Pseudomonas aeruginosa [22]): 32 µg/mL (≈ 52.2 µM) | MIC (Pseudomonas aeruginosa [3]): 16 µg/mL (≈ 26.1 µM) | MIC (Pseudomonas aeruginosa [5]): 32 µg/mL (≈ 52.2 µM) | MIC (Pseudomonas aeruginosa [6]): 64 µg/mL (≈ 104 µM) | MIC (Pseudomonas aeruginosa [7]): 64 µg/mL (≈ 104 µM) | MIC (Pseudomonas aeruginosa [8]): 16 µg/mL (≈ 26.1 µM) | MIC (Pseudomonas aeruginosa [23]): 32 µg/mL (≈ 52.2 µM) | MIC (Pseudomonas aeruginosa [24]): 8 µg/mL (≈ 13.1 µM) | MIC (Pseudomonas aeruginosa [9]): 8 µg/mL (≈ 13.1 µM) | MIC (Pseudomonas aeruginosa [10]): 4 µg/mL (≈ 6.53 µM) | MIC (Pseudomonas aeruginosa [12]): 32 µg/mL (≈ 52.2 µM) | MIC (Pseudomonas aeruginosa [25]): 32 µg/mL (≈ 52.2 µM) | fold change (FC) (Pseudomonas aeruginosa [20]): 16 | MIC (Pseudomonas aeruginosa [26]): 8 µg/mL (≈ 13.1 µM) | MIC (Pseudomonas aeruginosa [14]): 8 µg/mL (≈ 13.1 µM) | MIC (Pseudomonas aeruginosa [15]): 32 µg/mL (≈ 52.2 µM) | MIC (Pseudomonas aeruginosa [27]): 4 µg/mL (≈ 6.53 µM) | MIC (Pseudomonas aeruginosa [16]): 512 µg/mL (≈ 836 µM) | MIC (Pseudomonas aeruginosa [28]): 32 µg/mL (≈ 52.2 µM) | MIC (Pseudomonas aeruginosa [29]): 16 µg/mL (≈ 26.1 µM) | MIC (Pseudomonas aeruginosa [17]): 512 µg/mL (≈ 836 µM) | MIC (Pseudomonas aeruginosa [30]): 32 µg/mL (≈ 52.2 µM) | MIC (Pseudomonas aeruginosa [31]): 32 µg/mL (≈ 52.2 µM) | MIC (Pseudomonas aeruginosa [18]): 32 µg/mL (≈ 52.2 µM) | MIC (Pseudomonas aeruginosa [19]): 32 µg/mL (≈ 52.2 µM)
